According to patent publication US7521236B2, “Sulfur-oxidizing plant growth promoting rhizobacteria for enhanced canola performance” (priority 2002, dated 2009):

How the values were obtained:
Format in all cases: in vivo
canola plants [1] = test: Second growth room experiment: seed yield and seed nutrient uptake; details: seed, per plant
canola plants [2] = test: as above; details: per plant; for B uptake / Ca uptake / Cu uptake / K uptake / Mg uptake / N uptake / P uptake / S uptake / Zn uptake: seed
Protocol: (§1) Effects of bacterial inoculation on plant growth parameters were studied in a growth room with the four screened S-oxidizing strains (RAY12, RAY28, RAY132 and RAY209). More emphasis was given on plant growth characteristics including canola seed yield. Growth room assay was conducted with a sulfur deficient field soil, collected near Melfort, Saskatchewan, and was a loam (pH 7.8, electrical conductivity (mS/cm) 0.2 with following nutrient levels in ppm. nitrate nitrogen 7.3, phosphorous 14.6, potassium 187.1 and sulfur 9.5. Rhizobacterial strains RAY12, RAY28, RAY132 and RAY209 were used for the canola seed inoculation. The experiment was consisting of eight bacterial treatments along with three controls (control—no sulfur; elemental S control; and sulfate S control) each having three replications. One and half kg sieved soil (<5 mm mesh) was added to 16-cm plastic pots and the pots were kept in a growth room (22° C., 16 h light; 18° C., 8 h dark). Five seeds were planted in each of the pots and seedlings were thinned to one per pot after emergence. Daily watering to constant weight ensured similar matric potential between the pots. Canola plants were harvested at maturity (105 DAP) and stalk dry weight, pod number, pod weight and seed weight or yield determined. In another growth room experiment done in similar manner as previous one, canola seed yield, and, seed macronutrients (S, N, P, K, Ca and Mg) and micronutrients (Zn, B, Cu and Fe) uptake were determined.

canola = test: Field trial 2002, Dauphin, MB; details: canola seed, Dauphin field site
Protocol: In 2002, field trials were carried out using three canola PGPR strains. The canola trials were planted through commercial seed planter using bacteria inoculated powdered peat-based carrier material coated seeds. The cultivar used was the same as 2001. All field trials were randomized complete block design having each plot size of 6 m×1.5 m, with nine bacterial treatments along with three controls, all with six replicates. […] Plots were harvested at maturity, seed was collected and cleaned, and yield was measured based on 8.5% seed moisture. In addition, canola seed macronutrients (S, N, P, K, Ca and Mg) and micronutrients (Zn, Mn, Cu and Fe) uptake were also determined.

canola plants [3] = test: Growth room experiment in sulfur deficient Melfort, SK soil: biomass and yield; details: 105 DAP
Protocol: as §1

Molecule | Mn uptake (canola plants [1]) [µg] | seed yield (canola plants [2]) [g] | B uptake (canola plants [2]) [µg] | Ca uptake (canola plants [2]) [mg] | Cu uptake (canola plants [2]) [µg] | K uptake (canola plants [2]) [mg] | Mg uptake (canola plants [2]) [mg] | N uptake (canola plants [2]) [mg] | P uptake (canola plants [2]) [mg] | S uptake (canola plants [2]) [mg] | Zn uptake (canola plants [2]) [µg] | Ca uptake (canola) [kg/ha] | Cu uptake (canola) [g/ha] | Fe uptake (canola) [g/ha] | K uptake (canola) [kg/ha] | Mg uptake (canola) [kg/ha] | Mn uptake (canola) [g/ha] | N uptake (canola) [kg/ha] | P uptake (canola) [kg/ha] | S uptake (canola) [kg/ha] | further results
[S] [ES, elemental sulfur] | 1.14 | 2.92 | 0.09 | 12.10 | 0.03 | 28.42 | 11.37 | 116.30 | 28.71 | 18.66 | 2.08 | 4.50 | 2.17 | 57.17 | 7.60 | 3.51 | 28.97 | 32.91 | 7.54 | 4.13 | Zn uptake (canola): 40.05 g/ha; pod no. (canola plants [3]): 58 NO./PLANT; pod wt. (canola plants [3]): 3.17 G/PLANT; seed wt. (canola plants [3]): 1.13 G/PLANT; stalk dry wt. (canola plants [3]): 3.84 G/PLANT
sulfate sulfur [SO4] | 1.22 | 3.11 | 0.13 | 11.71 | 0.03 | 27.52 | 12.12 | 116.30 | 28.24 | 15.76 | 1.72 | 5.02 | 2.61 | 68.20 | 9.09 | 4.14 | 37.22 | 39.74 | 8.71 | 5.10 | Zn uptake (canola): 51.32 g/ha; pod no. (canola plants [3]): 78 NO./PLANT; pod wt. (canola plants [3]): 4.20 G/PLANT; seed wt. (canola plants [3]): 1.71 G/PLANT; stalk dry wt. (canola plants [3]): 4.56 G/PLANT
